Assay results from US11752155B2, “Treatment of autism spectrum disorders, obsessive-compulsive disorder and anxiety disorders” (Rugen Holdings (Cayman) Limited, priority 2016, dated 2023).
Counter-ions that a name gives are not always drawn. Like-named read-outs stand apart in the source and are kept apart here. Blank lines part the entries; values can stand above or below the compound they belong to.

What was measured:
[1] = molecular target: native rat brain NR2B receptors (Rattus norvegicus (Rat), UniProt P35439+Q00960); experiment: NR2B radioligand binding assay in rat brain using [3H] (E)-N1-(2-methoxybenzyl)-cinnamidine; conditions: rat brain NR2B receptors; mean of replicates; read-out: Arithmetic Mean Ki
native rat brain NR2B receptors, sequence (Q00960 27-1482, other chains not shown): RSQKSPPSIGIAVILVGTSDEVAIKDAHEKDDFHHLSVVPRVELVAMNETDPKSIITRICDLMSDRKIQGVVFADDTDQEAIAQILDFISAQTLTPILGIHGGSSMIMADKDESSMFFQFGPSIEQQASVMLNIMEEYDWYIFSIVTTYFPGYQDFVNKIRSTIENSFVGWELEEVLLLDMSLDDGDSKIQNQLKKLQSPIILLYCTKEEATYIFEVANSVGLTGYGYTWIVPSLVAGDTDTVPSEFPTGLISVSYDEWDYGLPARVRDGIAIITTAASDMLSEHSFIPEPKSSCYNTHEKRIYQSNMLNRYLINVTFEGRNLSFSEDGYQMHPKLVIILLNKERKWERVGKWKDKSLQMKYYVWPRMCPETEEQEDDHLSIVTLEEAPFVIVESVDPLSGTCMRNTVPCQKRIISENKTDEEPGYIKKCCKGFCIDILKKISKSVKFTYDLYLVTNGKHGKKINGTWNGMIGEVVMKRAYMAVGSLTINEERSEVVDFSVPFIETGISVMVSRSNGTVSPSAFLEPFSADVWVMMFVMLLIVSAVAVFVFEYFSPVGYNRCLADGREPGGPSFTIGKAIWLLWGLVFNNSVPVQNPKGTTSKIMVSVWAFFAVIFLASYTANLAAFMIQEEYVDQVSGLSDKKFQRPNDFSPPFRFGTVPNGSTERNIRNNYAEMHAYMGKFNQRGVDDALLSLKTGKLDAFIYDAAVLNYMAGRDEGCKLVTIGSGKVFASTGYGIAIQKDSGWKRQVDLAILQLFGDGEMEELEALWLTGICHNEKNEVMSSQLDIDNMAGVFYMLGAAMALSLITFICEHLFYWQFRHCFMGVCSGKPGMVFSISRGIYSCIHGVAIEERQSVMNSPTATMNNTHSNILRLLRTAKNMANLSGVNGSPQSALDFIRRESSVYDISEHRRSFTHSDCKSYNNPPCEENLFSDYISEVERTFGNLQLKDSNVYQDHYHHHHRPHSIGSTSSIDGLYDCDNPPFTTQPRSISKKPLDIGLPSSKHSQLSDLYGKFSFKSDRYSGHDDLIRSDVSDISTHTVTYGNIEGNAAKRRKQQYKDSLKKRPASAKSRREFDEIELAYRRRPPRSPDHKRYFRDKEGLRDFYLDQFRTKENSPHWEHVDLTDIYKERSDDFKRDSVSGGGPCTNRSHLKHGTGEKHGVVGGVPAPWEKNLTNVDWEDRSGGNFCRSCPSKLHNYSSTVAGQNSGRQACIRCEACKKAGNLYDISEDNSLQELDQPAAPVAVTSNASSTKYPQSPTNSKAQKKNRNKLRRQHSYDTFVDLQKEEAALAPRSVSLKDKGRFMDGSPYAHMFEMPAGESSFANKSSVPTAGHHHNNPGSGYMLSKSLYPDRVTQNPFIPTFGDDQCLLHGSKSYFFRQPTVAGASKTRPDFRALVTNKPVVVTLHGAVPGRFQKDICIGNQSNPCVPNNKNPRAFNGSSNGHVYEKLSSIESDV
Procedure: This example describes an NR2B receptor binding assay in rat brain using [^3H] […] The binding assay method was adapted from a previously described cellular human NR1a/NR2B cloned receptor assay (Kiss et al. Neurochem. Internatl. 2005, 46:453-464) to rat brain tissue. This assay serves as a selective measure of NR2B receptor binding activity in native rat brain receptors. Briefly, the brains of male Wistar rats were homogenized (Polytron) before centrifugation at 40,000×g for 15 minutes at 4° C. After 2 washes, the final pellet was homogenized and stored at −80° C. The protein concentration was determined by Bradford assay. [^3H] […] Non-specific binding was assessed in the presence of excess (10 μM) (E)-N1-(2-nethoxybenzyl)-cinnamidine.
Test compounds were solubilized at 10 mM in DMSO. Then the dilutions were performed with a constant solvent concentration (1% DMSO) in the assay. After incubation for 4.5 hours at room temperature, the assays were filtered on GF/3 filters pretreated with 0.3% (v/v) polyethylenimine (PEI) with a Packard system. The experiment was performed in duplicate (n=2).

[2] = tested on: wild type mice (male C57Bl/6); experiment: Novelty Phobia Test in wild type mice; format: in vivo, mouse
Procedure: Animals. Male C57Bl/6 mice (18-30 g body weight; 6-8 weeks of age) were obtained from Slaccas (Shanghai, China) and allowed to acclimate to the animal facility for 7 days. Mice were group housed in plastic cages (no more than 4 animals per cage) on wood shavings with nesting material. All animals had free access to food (M01-F, Slaccas) and water. The animal facility was maintained under artificial lighting between 7:00 AM and 7:00 PM in a controlled ambient temperature of 22-24° C. and relative humidity between 50-60%.
Compound formulation. The test compounds were prepared in a vehicle of DMSO and HP-β-CD, and administered IP or PO. The test compounds or vehicle were administered at various times (10-20 minutes) before the behavioral test described below. Dosing volume was 10 mL/kg.
Testing procedure. The behavioral testing apparatus was a rectangular black Plexiglas, 2-chambered box, with no top or bottom (50 cm long, 26 cm wide and 15 cm tall) and allowed for the simultaneous testing of 2 mice. The box was placed on a laboratory bench. The chambers of the testing box were cleaned and fresh paper chip bedding was added between tests. Mice were brought to the experiment room in their home cages on the day of testing. Behavioral tests were conducted between 10:00 AM and 1:00 PM in dim light. After drug administration, a mouse was placed into a test chamber and allowed to explore for 10 minutes. After this habituation period, a novel object (e.g., a toy ball of 3 cm in diameter with spikes) was introduced to the center of the chamber for 5 minutes. For the entire 15-minute test period, video was recorded for offline analysis with Any-maze Video Tracking software (Stoelting Co., Wood Dale, Ill.). The total distance traveled during the entire 15 minutes and the number of bouts that each mouse touched the novel object during the last 5 minutes were measured.
Statistical analyses. Data are presented as means and SEMs. Data were analyzed using one-way analysis of variance (ANOVA; Prism, GraphPad Software Inc., San Diego, Calif.), followed by the post-hoc Dunnett's test to compare test compound-treated groups with the vehicle control. A p value<0.05 was considered significant.

[3] = tested on: wild type mice (male NMRI); experiment: Marble Burying Test in wild type mice; format: in vivo, mouse; conditions: Mus musculus, ip, read-out: Percent Change in marbles buried relative to vehicle
Procedure: Animals. Male NMRI mice (20-30 g body weight) were obtained from Janvier Labs (Le Genest-Saint Isle, France) and allowed to acclimate to the animal facility for at least 5 days. Twelve mice were studied per treatment group.
Compound formulation. The test compounds were prepared in a vehicle of 0.5% DMSO and 4% HP-β-CD, and administered orally (PO) or IP. The test compounds or vehicle were administered 20 minutes before the behavioral test described below. Clobazam (8 mg/kg IP), administered 30 minutes before the test, was used as the positive reference compound.
Clobazam was dispersed in 0.2% hydroxypropylmethylcellulose (HPMC) in physiological saline. Dosing volume was 10 mL/kg.
Testing procedure. The Marble Burying Test was conducted as previously described by Broekkamp et al. (Eur. J. Pharmacol. 1986, 126:223-229). Mice exposed to small novel objects (marbles) will bury them in the sawdust floor covering. Anxiolytics decrease the number of marbles buried at non-sedating doses. Mice were individually placed in transparent plastic cages (33×21×18 cm) with 5 cm of sawdust on the floor and 25 marbles grouped in the center of the cage. The cage was covered with an inverted plastic cage. Each test cage, together with the marbles, was impregnated with mouse odor before-hand by leaving 10 mice in the cage for 15 minutes. These mice then played no further role in the experiment. The number of marbles covered by sawdust (⅔ or more) was counted at the end of the 30-minute test. The test was performed blind (compounds versus vehicle).
Statistical analyses. Data were analyzed by comparing test compound-treated groups with the vehicle control group using the Kruskal-Wallis test followed by post-hoc Mann-Whitney U tests. Data comparing the reference compound with the vehicle were analyzed using the Mann-Whitney U test. A p value<0.05 was considered significant.

human NR1/NR2B = human NR1/NR2B (Homo sapiens (Human), UniProt Q05586+Q13224); experiment: NR2B antagonist activity: calcium influx (Fluo-4) assay in HEK293 cells; format: cell-based
human NR1/NR2B, sequence (Q13224 27-1484, other chains not shown): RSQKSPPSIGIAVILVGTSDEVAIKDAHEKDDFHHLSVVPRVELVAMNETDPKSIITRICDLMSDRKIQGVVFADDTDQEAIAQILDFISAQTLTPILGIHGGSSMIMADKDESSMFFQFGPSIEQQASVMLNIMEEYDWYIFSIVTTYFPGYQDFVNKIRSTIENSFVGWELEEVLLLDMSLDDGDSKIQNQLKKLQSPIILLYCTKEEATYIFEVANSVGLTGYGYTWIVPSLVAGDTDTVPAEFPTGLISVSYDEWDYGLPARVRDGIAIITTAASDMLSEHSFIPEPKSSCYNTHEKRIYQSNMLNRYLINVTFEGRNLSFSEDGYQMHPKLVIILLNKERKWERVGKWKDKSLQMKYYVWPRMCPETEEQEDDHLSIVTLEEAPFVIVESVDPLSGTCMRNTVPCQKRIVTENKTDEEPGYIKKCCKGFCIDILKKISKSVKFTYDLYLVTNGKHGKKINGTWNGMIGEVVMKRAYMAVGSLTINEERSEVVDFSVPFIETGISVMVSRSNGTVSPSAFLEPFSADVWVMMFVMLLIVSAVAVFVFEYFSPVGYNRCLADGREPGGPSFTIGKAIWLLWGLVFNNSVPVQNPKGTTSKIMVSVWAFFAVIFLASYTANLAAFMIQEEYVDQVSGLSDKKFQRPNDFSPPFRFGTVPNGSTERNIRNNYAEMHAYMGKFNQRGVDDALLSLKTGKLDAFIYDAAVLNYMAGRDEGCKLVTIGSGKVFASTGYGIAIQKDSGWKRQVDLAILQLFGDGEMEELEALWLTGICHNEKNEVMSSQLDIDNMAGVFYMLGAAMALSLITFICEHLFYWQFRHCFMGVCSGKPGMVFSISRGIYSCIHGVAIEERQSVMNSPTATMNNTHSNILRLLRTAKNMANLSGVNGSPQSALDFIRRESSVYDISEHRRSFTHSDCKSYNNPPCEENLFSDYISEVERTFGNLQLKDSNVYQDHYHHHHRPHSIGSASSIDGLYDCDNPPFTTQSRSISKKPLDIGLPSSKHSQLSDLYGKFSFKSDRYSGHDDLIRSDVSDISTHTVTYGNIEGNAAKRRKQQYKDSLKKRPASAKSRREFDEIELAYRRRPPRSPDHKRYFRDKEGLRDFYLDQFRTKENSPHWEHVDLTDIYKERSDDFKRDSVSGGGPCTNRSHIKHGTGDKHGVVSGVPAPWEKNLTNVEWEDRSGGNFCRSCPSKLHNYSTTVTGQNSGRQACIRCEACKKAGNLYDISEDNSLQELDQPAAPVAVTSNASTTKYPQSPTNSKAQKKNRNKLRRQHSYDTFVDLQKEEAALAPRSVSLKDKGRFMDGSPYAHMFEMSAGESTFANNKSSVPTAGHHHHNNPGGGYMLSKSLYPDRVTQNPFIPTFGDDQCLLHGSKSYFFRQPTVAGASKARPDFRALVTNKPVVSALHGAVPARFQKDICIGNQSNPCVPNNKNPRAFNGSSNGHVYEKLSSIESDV
Procedure: Activation of the NR2A or NR2B subtype of NMDA receptor with glutamate as an agonist and glycine co-agonist on these cells results in calcium influx, which can be monitored with fluorescent indicator Fluo-4.
For experiments, the cells were seeded onto poly-D-lysine-coated 96-well black plates with clear bottom (Corning) at a density of ˜50,000 cells/well. After overnight culture, the growth medium was removed from the wells and the cells were incubated at 37° C. for 60 minutes in Hanks buffer containing 4 μM fluo-4-AM (Invitrogen) and 0.1% bovine serum albumin (BSA). After dye-loading, the cells were washed three times with Hanks buffer and incubated for 10 minutes at room temperature with various concentrations of test compounds prepared in Hanks buffer with 0.1% BSA. The cell plates were placed onto an FDSS Cell fluorescence reader (Hamamatsu). After 20 seconds of reading background fluorescence, agonist glutamate at final 100 µM and co-agonist glycine at final 50 μM were added to the cells to activate the receptor, and the resulting fluorescence changes were recorded and quantified. Based on the changes in fluorescence intensity, the pharmacological effect of test compounds was analyzed and the IC50 values derived from a non-linear least squares fitting of the concentration-dependent response to a standard logistic equation using Prism (Graphpad Software, Inc.): Amplitude=Max Amplitude/(1+(IC50/[antagonist])^n).

CYP2D6 = CYP2D6 (Homo sapiens (Human), UniProt P10635); experiment: CYP P450 enzyme inhibition in pooled human liver microsomes (dextromethorphan probe); format: in vitro ADME; conditions: Table 1.4B
CYP2D6, sequence (P10635 whole entry): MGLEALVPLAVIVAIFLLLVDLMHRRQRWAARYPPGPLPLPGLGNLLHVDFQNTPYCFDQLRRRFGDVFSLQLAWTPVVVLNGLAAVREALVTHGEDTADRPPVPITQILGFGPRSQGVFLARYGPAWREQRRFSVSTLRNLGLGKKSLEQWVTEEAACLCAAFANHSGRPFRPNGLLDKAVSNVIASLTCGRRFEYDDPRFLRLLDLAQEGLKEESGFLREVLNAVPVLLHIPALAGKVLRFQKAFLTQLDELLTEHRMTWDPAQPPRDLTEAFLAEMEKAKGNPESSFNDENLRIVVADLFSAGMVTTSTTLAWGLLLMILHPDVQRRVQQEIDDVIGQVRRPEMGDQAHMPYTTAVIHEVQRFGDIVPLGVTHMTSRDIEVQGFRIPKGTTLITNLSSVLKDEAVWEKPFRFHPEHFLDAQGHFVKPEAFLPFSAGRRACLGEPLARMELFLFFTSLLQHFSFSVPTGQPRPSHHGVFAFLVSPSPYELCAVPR
Procedure: Test compound concentration-dependent response studies were performed in triplicate.

hERG channel = hERG channel (Homo sapiens (Human), UniProt Q12809); experiment: hERG channel inhibition, whole cell patch clamp in HEK293 cells; format: cell-based; conditions: for IC50: Table 1.3B
hERG channel, sequence (Q12809 whole entry): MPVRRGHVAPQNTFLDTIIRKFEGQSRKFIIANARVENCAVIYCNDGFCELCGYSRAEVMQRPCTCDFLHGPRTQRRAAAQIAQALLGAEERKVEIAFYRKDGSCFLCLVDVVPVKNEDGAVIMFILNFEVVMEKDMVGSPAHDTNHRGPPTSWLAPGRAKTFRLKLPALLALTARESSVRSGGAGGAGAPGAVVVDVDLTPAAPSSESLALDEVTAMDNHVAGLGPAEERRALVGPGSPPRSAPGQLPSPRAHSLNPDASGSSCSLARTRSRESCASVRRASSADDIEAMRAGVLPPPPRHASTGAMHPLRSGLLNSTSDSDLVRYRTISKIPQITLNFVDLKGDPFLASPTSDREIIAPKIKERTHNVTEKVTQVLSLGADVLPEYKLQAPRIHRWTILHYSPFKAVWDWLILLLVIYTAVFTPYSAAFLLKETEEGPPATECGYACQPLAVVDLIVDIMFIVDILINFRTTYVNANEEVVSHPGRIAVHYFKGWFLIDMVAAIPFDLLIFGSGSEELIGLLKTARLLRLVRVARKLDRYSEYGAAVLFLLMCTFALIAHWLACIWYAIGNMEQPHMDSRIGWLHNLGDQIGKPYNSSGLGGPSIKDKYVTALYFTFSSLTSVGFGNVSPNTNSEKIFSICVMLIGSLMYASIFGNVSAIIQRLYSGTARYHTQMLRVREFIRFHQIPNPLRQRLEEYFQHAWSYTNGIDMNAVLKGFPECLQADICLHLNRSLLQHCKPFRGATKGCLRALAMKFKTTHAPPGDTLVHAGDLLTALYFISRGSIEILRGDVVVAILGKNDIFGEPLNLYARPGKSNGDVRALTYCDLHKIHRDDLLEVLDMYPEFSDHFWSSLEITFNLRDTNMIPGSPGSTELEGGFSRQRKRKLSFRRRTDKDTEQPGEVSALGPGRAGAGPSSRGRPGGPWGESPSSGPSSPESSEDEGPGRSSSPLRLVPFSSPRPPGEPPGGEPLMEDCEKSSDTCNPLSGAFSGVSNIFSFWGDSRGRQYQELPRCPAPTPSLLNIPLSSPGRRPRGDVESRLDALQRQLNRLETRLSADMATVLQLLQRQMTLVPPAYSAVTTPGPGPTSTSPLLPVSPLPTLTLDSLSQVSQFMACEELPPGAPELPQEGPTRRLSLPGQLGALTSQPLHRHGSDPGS

[4] = Table 1.1A, read-out: NR2B IC50
[5] = Table 1.3A, read-out: hNR2B IC50
[6] = Table 1.4A, read-out: NR2B IC50

Ki [1]: 15.7 nM | IC50 (human NR1/NR2B; [4]): 30 nM | IC50 (human NR1/NR2B; [5]): 30 nM | IC50 (human NR1/NR2B; [6]): 30 nM
Compound: FC(F)(F)c1ccc(C(F)(F)CN2CCC(Nc3ncnc4[nH]ccc34)CC2)nc1 [C-5^A′]
bouts of nose touching of the novel object, efficacy ([2]; IP (C-11 also PO)): not efficacious | change in vivo at 10 mg/kg ([2]; Mus musculus, ip, 10 min, IP, 10 mg/kg, pre-test time 10 min, read-out: Percent Change in Novel Object Number of Nose Touches relative to vehicle control): 70.8% | change in vivo at 30 mg/kg ([2]; Mus musculus, ip, 10 min, IP, pre-test time 10 min, read-out: Percent Change in Novel Object Number of Nose Touches relative to vehicle control): 42.4% | change in vivo at 60 mg/kg ([2]; Mus musculus, ip, 10 min, IP, 60 mg/kg, pre-test time 10 min, read-out: Percent Change in Novel Object Number of Nose Touches relative to vehicle control): -36.9% | change in vivo at 3 mg/kg [3]: 2% | change in vivo at 10 mg/kg [3]: -50% | change in vivo at 30 mg/kg ([3]; 30 mg/kg): -98%

Ki [1]: 31.6 nM | IC50 (human NR1/NR2B; [4]): 45 nM | IC50 (human NR1/NR2B; [5]): 45 nM | IC50 (human NR1/NR2B; [6]): 45 nM
Compound: FC(F)(F)c1ccc(C(F)(F)CN2CCC(Nc3ncnc4[nH]ccc34)CC2)cn1 [C-127^A′]
change in vivo at 20 mg/kg ([2]; Mus musculus, ip, 0.25 h, IP, 20 mg/kg, pre-test time 15 min, read-out: Percent Change in Novel Object Number of Nose Touches relative to vehicle control): 120% | change in vivo at 30 mg/kg ([2]; Mus musculus, ip, 0.25 h, IP, pre-test time 15 min, read-out: Percent Change in Novel Object Number of Nose Touches relative to vehicle control): 160% | pattern of the dose-response function for bouts of nose touching ([2]; mouse, in vivo): dose-dependent increases | change in vivo at 1 mg/kg [3]: 15% | change in vivo at 3 mg/kg [3]: -27% | change in vivo at 10 mg/kg [3]: -98%

IC50 (CYP2D6): > 50000 nM
Compound: O=C(OCc1ccc(F)cc1)N1CC[C@H](CNc2ncccn2)C(F)(F)C1 [E1-22.4^B′, (R)-4-fluorobenzyl 3,3-difluoro-4-((pyrimidin-2-ylamino)methyl)piperidine-1-carboxylate methanesulfonate]
change in vivo at 0.3 mg/kg ([3]; 0.3 mg/kg): -6% | change in vivo at 1.78 mg/kg ([3]; 1.78 mg/kg): -97% | change in vivo at 3 mg/kg [3]: -99% | IC50 (hERG channel): 39000 nM

Ki [1]: 3.4 nM
Compound: Cc1ccc(COC(=O)N2CC[C@H](CNc3ncc(C)cn3)C(F)(F)C2)cc1 [E1-22.26^B′, (R)-4-methylbenzyl 3,3-difluoro-4-(((5-methylpyrimidin-2-yl)amino)methyl)piperidine-1-carboxylate mesylate]
change in vivo at 1 mg/kg [3]: -12% | change in vivo at 3 mg/kg [3]: -23% | change in vivo at 10 mg/kg [3]: -96%

IC50 (CYP2D6): 18000 nM
Compound: Cc1ccc(COC(=O)N2CC[C@H](CNc3ccccn3)C(F)(F)C2)cc1 [E1-23.2^B′, (R)-4-methylbenzyl 3,3-difluoro-4-((pyridin-2-ylamino)methyl)piperidine-1-carboxylate]
IC50 (hERG channel): 5600 nM

Compound: O=C(OCc1ccc(F)cc1)N1CC[C@H](CNc2cccnn2)C(F)(F)C1 [E1-24.4^B′, (R)-4-fluorobenzyl 3,3-difluoro-4-((pyridazin-3-ylamino)methyl)piperidine-1-carboxylate methanesulfonate]
Ki [1]: 10 nM

Ki [1]: 4.7 nM
Compound: O=C(OCc1ccc(C(F)F)cc1)N1CC[C@H](CNc2cccnn2)C(F)(F)C1 [E1-24.6^B′, (R)-4-(difluoromethyl)benzyl 3,3-difluoro-4-((pyridazin-3-ylamino)methyl)piperidine-1-carboxylate hydrochloride]

IC50 (CYP2D6): 200 nM
Compound: Cc1ccc(COC(=O)N2CC[C@H](CNc3ccncn3)C(F)(F)C2)cc1 [E1-37.2^B′, (R)-4-methylbenzyl 3,3-difluoro-4-((pyrimidin-4-ylamino)methyl)piperidine-1-carboxylate methanesulfonate]

Compound: O=C(OCc1ccc(F)cc1)N1CC[C@H](CNc2ccncn2)C(F)(F)C1 [E1-37.4^B′, (R)-4-fluorobenzyl 3,3-difluoro-4-((pyrimidin-4-ylamino)methyl)piperidine-1-carboxylate mesylate]
Ki [1]: 4.7 nM

Ki [1]: 3.9 nM
Compound: O=C(OCc1ccc(C(F)F)cc1)N1CC[C@H](CNc2ccncn2)C(F)(F)C1 [E1-37.6^B′, (R)-4-(difluoromethyl)benzyl 3,3-difluoro-4-((pyrimidin-4-ylamino)methyl)piperidine-1-carboxylate hydrochloride]

Compound: O=C(OCc1ccc(F)cc1)N1CC[C@H](CNc2ccncc2F)C(F)(F)C1 [E1-38.10^B′, (R)-4-fluorobenzyl 3,3-difluoro-4-(((3-fluoropyridin-4-yl)amino)methyl)piperidine-1-carboxylate mesylate]
Ki [1]: 3.8 nM

Ki [1]: 84.2 nM | IC50 (human NR1/NR2B; Table 1.1B, read-out: NR2B IC50): 156 nM | IC50 (human NR1/NR2B; Table 1.3B, read-out: NR2B IC50): 156 nM | IC50 (human NR1/NR2B; Table 1.4B, read-out: NR2B IC50): 156 nM
Compound: Cc1ccc(COC(=O)N2CC[C@@H](CNc3nccn4cnnc34)C(F)(F)C2)cc1 [E2-1.2^B′]
inhibition at 5 min, 10 µM (hERG channel; human, HEK293 cells stably expressing hERG channel, pH 7.35, 10 μM): 22%

IC50 (CYP2D6): > 50000 nM
Compound: O=C(OC1Cc2ccccc2C1)N1CC[C@H](CNc2ncccn2)C(F)(F)C1 [III-E1-22.1^B′, (R)-2,3-dihydro-1H-inden-2-yl 3,3-difluoro-4-((pyrimidin-2-ylamino)methyl)piperidine-1-carboxylate methanesulfonate]
IC50 (hERG channel): 35000 nM
